Compared with `CN(C)C(=O)Cc1nn(-c2cccnc2)c(=O)c2c1c1ccc(F)cc1n2C.Cl`, `CN(C)C(=O)Cc1nn(-c2cccnc2)c(=O)c2c1c1ccc(Cl)cc1n2C.Cl` is higher in melting point: 244 to 250 °C for the first, 250 to 252 °C for the second.

First: CN(C)C(=O)Cc1nn(-c2ccncc2)c(=O)c2c1c1ccc(F)cc1n2C.Cl
Second: CN(C)C(=O)Cc1nn(-c2ccncc2)c(=O)c2c1c1ccc(Cl)cc1n2C.Cl
The melting point of the first is lower: 267 to 270 °C for the first, 275 to 279 °C for the second.

First: CN(C)C(=O)Cc1nn(-c2ccccn2)c(=O)c2c1c1ccc(F)cc1n2C [Compound 1, 7-fluoro-N,N,5-trimethyl-4-oxo-3-(pyridin-2-yl)-3,5-dihydro-4H-pyridazino[4,5-b]indole-1-acetamide]
Second: CN(C)C(=O)Cc1nn(-c2ccccn2)c(=O)c2c1c1ccc(Cl)cc1n2C [Compound 4, 7-chloro-N,N,5-trimethyl-4-oxo-3-(pyridin-2-yl)-3,5-dihydro-4H-pyridazino[4,5-b]indole-1-acetamide]
The melting point of the first is higher: 222 to 223 °C for the first, 183 to 184 °C for the second.

Compared with `CN(C)C(=O)Cc1nn(-c2cccnc2)c(=O)c2c1c1ccc(Cl)cc1n2C` [Compound 5, 7-chloro-N,N,5-trimethyl-4-oxo-3-(pyridin-3-yl)-3,5-dihydro-4H-pyridazino[4,5-b]indole-1-acetamide], `CCN(CC)C(=O)Cc1nn(-c2cccnc2)c(=O)c2c1c1ccc(Cl)cc1n2C` [Compound 9, 7-chloro-N,N-diethyl-5-methyl-4-oxo-3-(pyridin-3-yl)-3,5-dihydro-4H-pyridazino[4,5-b]indole-1-acetamide] is lower in melting point: 255 to 256 °C for the first, 199 to 200 °C for the second.

Compound `Cc1ccc(-n2nc(CC(=O)N(C)C)c3c4ccc(Cl)cc4n(C)c3c2=O)cn1` [Compound 8, 7-chloro-N,N,5-trimethyl-4-oxo-3-(6-methylpyridin-3-yl)-3,5-dihydro-4H-pyridazino[4,5-b]indole-1-acetamide] has a melting point of 253 to 255 °C.

Reference: patent publication US7235554B2, “3-heteroaryl-3,5-dihydro-4-oxo-4H-pyridazino[4,5-b] indole-1-acetamide derivatives, preparation and use thereof in medicaments” (Sanofi-Aventis, priority 2002, dated 2007)
